Reference: ChEMBL document CHEMBL1201862, “PubChem BioAssay data set” (2004)
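Assay format: 96-well plates, 48-hour exposure. At the GI50, growth is halved.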 Calls of active or inactive are those of the source. Cut-off read from the data, not from the text of the source: active = GI50 up to about 1.1 µM and inactive = higher.

Tests used:
Assay in all cases: NCI tumour cell line growth inhibition, 48 h
BT-549 = system: BT-549
MDA-MB-435 = system: MDA-MB-435
OVCAR-8 = system: OVCAR-8
HCT-15 = system: HCT-15
OVCAR-4 = system: OVCAR-4
EKVX = system: EKVX
SW-620 = system: SW-620
SK-MEL-2 = system: SK-MEL-2
CCRF-CEM = system: CCRF-CEM
HOP-92 = system: HOP-92
DMS-273 = system: DMS-273
SN12C = system: SN12C
SF-295 = system: SF-295
HL-60 = system: HL-60
SR = system: SR
KM12 = system: KM12
MDA-N = system: MDA-N
K562 = system: K562
LXFL 529 = system: LXFL 529
OVCAR-5 = system: OVCAR-5
SNB-19 = system: SNB-19
IGROV-1 = system: IGROV-1
MDA-MB-231 = system: MDA-MB-231
SNB-78 = system: SNB-78
MOLT-4 = system: MOLT-4
NCI-H226 = system: NCI-H226
SF-268 = system: SF-268
A498 = system: A498
UO-31 = system: UO-31
HCC 2998 = system: HCC 2998
SK-MEL-5 = system: SK-MEL-5
Hs-578T = system: Hs-578T
LOX IMVI = system: LOX IMVI
U-251 = system: U-251
NCI-H23 = system: NCI-H23
HOP-62 = system: HOP-62
HCT-116 = system: HCT-116
SNB-75 = system: SNB-75
SF-539 = system: SF-539
OVCAR-3 = system: OVCAR-3
NCI-H522 = system: NCI-H522
DLD-1 = system: DLD-1
XF498 = system: XF498
ACHN = system: ACHN
SK-MEL-28 = system: SK-MEL-28
786-0 = system: 786-0
A549 = system: A549
COLO 205 = system: COLO 205
RPMI-8226 = system: RPMI-8226
M19-MEL = system: M19-MEL
MCF7 = system: MCF7
HT-29 = system: HT-29
UACC-257 = system: UACC-257
SK-OV-3 = system: SK-OV-3
TK-10 = system: TK-10
M14 = system: M14
NCI-H460 = system: NCI-H460
NCI/ADR-RES = system: NCI/ADR-RES
DMS-114 = system: DMS-114
DU-145 = system: DU-145
PC-3 = system: PC-3
HOP-18 = system: HOP-18
CAKI-1 = system: CAKI-1
Malme-3M = system: Malme-3M
RXF 393 = system: RXF 393
UACC-62 = system: UACC-62
T47D = system: T47D

Measured: GI50

O=C1C(Cl)=C(c2ccc([N+](=O)[O-])cc2)C(=O)c2c(O)cccc21
inactive: MDA-MB-435 2.05 µM | OVCAR-8 1.39 µM | OVCAR-4 1.93 µM | EKVX 3.35 µM | SW-620 1.96 µM | CCRF-CEM 1.55 µM | HOP-92 1.44 µM | DMS-273 4.06 µM | SN12C 2.96 µM | SF-295 2.7 µM | HL-60 3.48 µM | MDA-N 2.49 µM | OVCAR-5 2.24 µM | SNB-19 1.45 µM | IGROV-1 2.39 µM | SNB-78 1.83 µM | MOLT-4 2.56 µM | NCI-H226 1.73 µM | A498 3.08 µM | UO-31 1.92 µM | HCC 2998 2.26 µM | SK-MEL-5 1.87 µM | Hs-578T 1.19 µM | LOX IMVI 1.39 µM | NCI-H23 1.67 µM | HOP-62 4.17 µM | SNB-75 1.83 µM | OVCAR-3 1.3 µM | DLD-1 1.16 µM | SK-MEL-28 1.26 µM | 786-0 3.15 µM | A549 3.28 µM | COLO 205 1.82 µM | M19-MEL 1.57 µM | MCF7 4.88 µM | HT-29 2.72 µM | UACC-257 1.9 µM | SK-OV-3 2.87 µM | TK-10 3.14 µM | NCI-H460 2.3 µM | NCI/ADR-RES 2.39 µM | DU-145 6.04 µM | PC-3 2.12 µM | CAKI-1 1.29 µM | Malme-3M 2.09 µM | T47D 2.37 µM
0.614 µM: HCT-15
active: BT-549 1.03 µM | SK-MEL-2 0.713 µM | SR 0.134 µM | KM12 1.11 µM | K562 1.11 µM | LXFL 529 0.273 µM | MDA-MB-231 1.03 µM | SF-268 0.843 µM | U-251 0.8 µM | HCT-116 1.06 µM | SF-539 0.341 µM | NCI-H522 0.292 µM | XF498 0.395 µM | ACHN 1.11 µM | RPMI-8226 0.379 µM | M14 0.979 µM | DMS-114 0.202 µM | HOP-18 0.573 µM | RXF 393 0.678 µM | UACC-62 0.508 µM

C[n+]1c(Cl)cn2c3nc4ccccc4nc3c([O-])c(C#N)c21
inactive: BT-549 > 100 µM | MDA-MB-435 > 100 µM | OVCAR-8 > 100 µM | OVCAR-4 > 59 µM | EKVX > 100 µM | SW-620 > 100 µM | SK-MEL-2 > 4.65 µM | CCRF-CEM 77.3 µM | HOP-92 > 100 µM | DMS-273 > 100 µM | SN12C > 100 µM | SF-295 > 100 µM | HL-60 > 100 µM | SR > 74.8 µM | KM12 > 10 µM | MDA-N > 100 µM | K562 > 100 µM | LXFL 529 > 100 µM | OVCAR-5 > 10 µM | SNB-19 > 100 µM | IGROV-1 > 100 µM | MDA-MB-231 > 100 µM | SNB-78 > 100 µM | MOLT-4 > 100 µM | NCI-H226 > 100 µM | SF-268 > 81.3 µM | A498 > 62.7 µM | UO-31 > 100 µM | HCC 2998 > 10 µM | SK-MEL-5 > 4.65 µM | Hs-578T > 100 µM | LOX IMVI > 100 µM | U-251 > 100 µM | NCI-H23 > 100 µM | HOP-62 > 10 µM | HCT-116 > 100 µM | SNB-75 > 54.6 µM | SF-539 9.31 µM | OVCAR-3 > 100 µM | NCI-H522 > 10 µM | XF498 > 100 µM | ACHN 99.1 µM | SK-MEL-28 > 100 µM | 786-0 > 100 µM | A549 > 100 µM | COLO 205 > 100 µM | RPMI-8226 > 100 µM | MCF7 18.1 µM | HT-29 > 100 µM | UACC-257 > 100 µM | SK-OV-3 > 100 µM | TK-10 > 10 µM | M14 > 100 µM | NCI-H460 9.48 µM | NCI/ADR-RES > 100 µM | DMS-114 > 100 µM | DU-145 > 100 µM | PC-3 > 100 µM | HOP-18 > 100 µM | CAKI-1 > 100 µM | Malme-3M > 100 µM | RXF 393 > 100 µM | UACC-62 > 92.7 µM | T47D 41.7 µM
active: DLD-1 < 0.01 µM | M19-MEL < 0.01 µM
> 10 µM: HCT-15
